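Dose response: 5 concentrations. Exposure: 48 h. Format: 96-well plates. Endpoint: linear interpolation; highest concentration if not reached. GI50 marks 50% less growth.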 The source made the active and inactive calls. Rule as the data show it: active = GI50 up to about 1.1 µM and inactive = higher.
Experiments:
Assay in all cases: DTP human tumour cell line panel, 48 h
NCI-H226 = tested on: NCI-H226
RPMI-8226 = tested on: RPMI-8226
NCI-H460 = tested on: NCI-H460
HCC 2998 = tested on: HCC 2998
MOLT-4 = tested on: MOLT-4
NCI-H23 = tested on: NCI-H23
SK-OV-3 = tested on: SK-OV-3
ACHN = tested on: ACHN
K562 = tested on: K562
HCT-15 = tested on: HCT-15
HOP-92 = tested on: HOP-92
COLO 205 = tested on: COLO 205
IGROV-1 = tested on: IGROV-1
OVCAR-8 = tested on: OVCAR-8
UO-31 = tested on: UO-31
SF-295 = tested on: SF-295
RXF 393 = tested on: RXF 393
HCT-116 = tested on: HCT-116

SMILES	GI50 (NCI-H226)	GI50 (RPMI-8226)	GI50 (NCI-H460)	GI50 (HCC 2998)	GI50 (MOLT-4)	GI50 (NCI-H23)	GI50 (SK-OV-3)	GI50 (ACHN)	GI50 (K562)	GI50 (HCT-15) [µM]	GI50 (HOP-92)	GI50 (COLO 205)	GI50 (IGROV-1)	GI50 (OVCAR-8)	GI50 (UO-31)	GI50 (SF-295)	GI50 (RXF 393)	GI50 (HCT-116)
Oc1cc(-c2ccc3c(c2)OCO3)nc2cc3c(cc12)OCO3	34.4 µM (inactive)	37.5 µM (inactive)	40.2 µM (inactive)	31.4 µM (inactive)	59.8 µM (inactive)	32.4 µM (inactive)	30.9 µM (inactive)	46.1 µM (inactive)	28.8 µM (inactive)	40.3	> 100 µM (inactive)	31.5 µM (inactive)	> 100 µM (inactive)	25.7 µM (inactive)	> 100 µM (inactive)	–	–	–
COc1ccc(C(O)/C(=C/n2ccnc2)c2ccccc2)cc1OC (centres undefined)	> 100 µM (inactive)	> 100 µM (inactive)	> 100 µM (inactive)	> 100 µM (inactive)	> 100 µM (inactive)	> 100 µM (inactive)	> 100 µM (inactive)	> 100 µM (inactive)	> 100 µM (inactive)	> 100	> 100 µM (inactive)	> 100 µM (inactive)	> 100 µM (inactive)	> 100 µM (inactive)	> 100 µM (inactive)	> 100 µM (inactive)	> 100 µM (inactive)	> 100 µM (inactive)
Oc1c(Cl)cc2cc1-c1cc(cc(Cl)c1O)CCc1c(cc(Cl)c(O)c1Cl)-c1cc(Cl)c(c(Cl)c1O)/C=C\2	11.5 µM (inactive)	22.1 µM (inactive)	4.42 µM (inactive)	6.98 µM (inactive)	30.2 µM (inactive)	13.3 µM (inactive)	9.16 µM (inactive)	13.7 µM (inactive)	> 50 µM (inactive)	7.96	16.8 µM (inactive)	8.24 µM (inactive)	8.99 µM (inactive)	7.91 µM (inactive)	–	–	15.2 µM (inactive)	8.11 µM (inactive)
CCC1(O)C(=O)OCc2c1cc1n(c2=O)Cc2c-1nc1ccccc1c2OC (centres undefined)	< 0.01 µM (active)	< 0.0212 µM (active)	< 0.01 µM (active)	0.218 µM (active)	< 0.01 µM (active)	< 0.0121 µM (active)	0.0386 µM (active)	< 0.01 µM (active)	< 0.0305 µM (active)	0.117	0.106 µM (active)	0.378 µM (active)	0.174 µM (active)	0.0194 µM (active)	< 0.0221 µM (active)	< 0.01 µM (active)	< 0.0136 µM (active)	0.0453 µM (active)
COc1ccc2c(c1)Oc1cc(O)ccc1[C@@H]2c1ccccc1C(=O)NC(C)c1ccccc1 (some centres undefined)	18.3 µM (inactive)	6.49 µM (inactive)	12.2 µM (inactive)	11.9 µM (inactive)	5.73 µM (inactive)	16.1 µM (inactive)	23.1 µM (inactive)	15.6 µM (inactive)	14.8 µM (inactive)	13.7	–	16.4 µM (inactive)	18.2 µM (inactive)	17.6 µM (inactive)	13.5 µM (inactive)	13 µM (inactive)	13.1 µM (inactive)	12.2 µM (inactive)
Cc1ccc(C(=O)NCCN(C)C)c2nc3ccccc3cc12	1.15 µM (inactive)	4.24 µM (inactive)	0.34 µM (active)	2.56 µM (inactive)	0.608 µM (active)	–	30.3 µM (inactive)	0.45 µM (active)	1.4 µM (inactive)	0.644	14 µM (inactive)	1.57 µM (inactive)	6.58 µM (inactive)	0.622 µM (active)	2.49 µM (inactive)	1.07 µM (active)	1.29 µM (inactive)	0.468 µM (active)
N#C/C(=C1\SCC(=O)N1c1ccccc1)c1nc2ccccc2[nH]1	> 100 µM (inactive)	–	> 100 µM (inactive)	–	> 100 µM (inactive)	> 100 µM (inactive)	> 100 µM (inactive)	> 100 µM (inactive)	> 100 µM (inactive)	> 100	> 100 µM (inactive)	> 100 µM (inactive)	> 100 µM (inactive)	> 100 µM (inactive)	> 100 µM (inactive)	> 100 µM (inactive)	> 100 µM (inactive)	> 100 µM (inactive)
CCN(CC)CC(C(=O)Nc1c(C)cccc1C)/C(C)=N\NC(=O)c1ccncc1 (centres undefined)	> 100 µM (inactive)	–	> 100 µM (inactive)	> 100 µM (inactive)	> 100 µM (inactive)	> 100 µM (inactive)	> 100 µM (inactive)	> 100 µM (inactive)	–	> 100	> 100 µM (inactive)	> 100 µM (inactive)	> 100 µM (inactive)	> 100 µM (inactive)	> 100 µM (inactive)	> 100 µM (inactive)	> 100 µM (inactive)	> 100 µM (inactive)
COC(=O)N/N=C(\C(=O)Nc1cccc([N+](=O)[O-])c1)c1nc2ccc([N+](=O)[O-])cc2nc1O	> 100 µM (inactive)	32.7 µM (inactive)	57.5 µM (inactive)	33 µM (inactive)	52.7 µM (inactive)	> 100 µM (inactive)	> 100 µM (inactive)	24.7 µM (inactive)	11.4 µM (inactive)	–	61.2 µM (inactive)	37.1 µM (inactive)	64.6 µM (inactive)	83.2 µM (inactive)	14.5 µM (inactive)	> 100 µM (inactive)	> 100 µM (inactive)	61.7 µM (inactive)
O=[N+]([O-])c1cnn(C2=CNc3ccccc3N=C2)c1	> 100 µM (inactive)	–	> 100 µM (inactive)	> 100 µM (inactive)	> 100 µM (inactive)	> 100 µM (inactive)	> 100 µM (inactive)	> 100 µM (inactive)	–	> 100	> 100 µM (inactive)	> 100 µM (inactive)	–	> 100 µM (inactive)	> 100 µM (inactive)	> 100 µM (inactive)	46.7 µM (inactive)	> 100 µM (inactive)
O=C1CC[C@@H](S(=O)(=O)c2ccccc2)[C@@H](/C=C/c2ccccc2)O1	> 100 µM (inactive)	> 100 µM (inactive)	> 100 µM (inactive)	> 100 µM (inactive)	> 100 µM (inactive)	> 100 µM (inactive)	> 100 µM (inactive)	> 100 µM (inactive)	> 100 µM (inactive)	> 100	–	> 100 µM (inactive)	> 100 µM (inactive)	> 100 µM (inactive)	> 100 µM (inactive)	> 100 µM (inactive)	> 100 µM (inactive)	> 100 µM (inactive)
Cc1ccc2c(ccc(/C=C\c3cc(C)c4cccnc4c3O)[n+]2C)c1	1.4 µM (inactive)	0.401 µM (active)	0.439 µM (active)	1.81 µM (inactive)	1.05 µM (active)	2.67 µM (inactive)	–	5.65 µM (inactive)	0.385 µM (active)	–	–	9.89 µM (inactive)	6.24 µM (inactive)	0.912 µM (active)	15.7 µM (inactive)	10 µM (inactive)	–	0.61 µM (active)
CC(C)(C)CC(C)(C)NCC(O)COc1ccc(C(C)(C)c2ccc(OCC(O)CNC(C)(C)CC(C)(C)C)cc2)cc1 (centres undefined)	1.97 µM (inactive)	1.46 µM (inactive)	0.46 µM (active)	0.349 µM (active)	0.34 µM (active)	1.76 µM (inactive)	1.77 µM (inactive)	1.77 µM (inactive)	0.244 µM (active)	1.37	1.78 µM (inactive)	0.376 µM (active)	1.77 µM (inactive)	1.64 µM (inactive)	1.61 µM (inactive)	1.68 µM (inactive)	1.82 µM (inactive)	2.37 µM (inactive)
COC(=O)C1=C(C[S+]([O-])c2ccc([N+](=O)[O-])cc2[N+](=O)[O-])C2C=CC1C2 (centres undefined)	31.4 µM (inactive)	77.1 µM (inactive)	35.9 µM (inactive)	38.4 µM (inactive)	22.2 µM (inactive)	26.4 µM (inactive)	38.3 µM (inactive)	19.8 µM (inactive)	19 µM (inactive)	15.7	–	19.2 µM (inactive)	64.9 µM (inactive)	30.5 µM (inactive)	22.4 µM (inactive)	65 µM (inactive)	26.2 µM (inactive)	21.8 µM (inactive)
N#CC(C#N)=c1ccc(=C2NCC3CCCN23)cc1 (centres undefined)	> 100 µM (inactive)	> 100 µM (inactive)	> 100 µM (inactive)	> 100 µM (inactive)	> 100 µM (inactive)	–	> 100 µM (inactive)	–	> 100 µM (inactive)	> 100	> 100 µM (inactive)	> 100 µM (inactive)	> 100 µM (inactive)	> 100 µM (inactive)	> 100 µM (inactive)	> 100 µM (inactive)	> 100 µM (inactive)	> 100 µM (inactive)
CC(=O)NC1=C(Nc2ccc(C)cc2)C(=O)c2ccccc2C1=O	14.1 µM (inactive)	11.7 µM (inactive)	12.1 µM (inactive)	31.7 µM (inactive)	16.7 µM (inactive)	8.02 µM (inactive)	> 75 µM (inactive)	17.9 µM (inactive)	18.2 µM (inactive)	14.5	–	18.7 µM (inactive)	17.7 µM (inactive)	25 µM (inactive)	25 µM (inactive)	18.2 µM (inactive)	23.5 µM (inactive)	19.9 µM (inactive)
COC(=O)[C@@]12C3=NO[C@]1(C(=O)OC)C(O[Si](C)(C)C(C)(C)C)C1OC(C)(C)OC1[C@@H]2[C@@H](OCc1ccccc1)CC3 (some centres undefined)	> 100 µM (inactive)	6.1 µM (inactive)	–	> 100 µM (inactive)	7.52 µM (inactive)	58.7 µM (inactive)	> 100 µM (inactive)	–	8.93 µM (inactive)	91	4.4 µM (inactive)	83.8 µM (inactive)	> 100 µM (inactive)	> 100 µM (inactive)	8.85 µM (inactive)	> 100 µM (inactive)	–	8.2 µM (inactive)
